Test [1] concerns CL 5701 (Pseudomonas aeruginosa; Pa AmpC). Description: Synergy assay (checkerboard) with imipenem against P. aeruginosa strain CL5701. It is filed as cell-based. The settings on record: for 2X Synergy CL5701: BLI concentration reducing the MIC of imipenem by a factor of 2, P. aeruginosa strain CL5701.
Test [2] deals with CL 6569 (Klebsiella pneumoniae; KPC-2). Description: Synergy assay (checkerboard) with imipenem against K. pneumoniae strain CL6569. The settings on record: for 16X Synergy CL6569: BLI concentration reducing the MIC of imipenem by a factor of 16, K. pneumoniae strain CL6569; for 32X Synergy CL6569: BLI concentration reducing the MIC of imipenem by a factor of 32, K. pneumoniae strain CL6569; for 64X Synergy CL6569: BLI concentration reducing the MIC of imipenem by a factor of 64, K. pneumoniae strain CL6569.
Text: The assay determines the concentration of a β-lactamase inhibitor required to reduce the MIC of a β-lactam antibiotic by one-half, one-quarter, one-eighth, one-sixteenth and one-thirty-second against strains of bacteria normally resistant to the antibiotic in question. This is accomplished by titrating the BLI in a serial dilution across a microtiter plate while at the same time titrating the antibiotic in a serial dilution down the microtiter plate and then inoculating the plate with the bacterial strain in question and allowing the bacteria to grow up overnight. Each well in this microplate checkerboard contains a different combination of concentrations of the inhibitor and the antibiotic allowing a full determination of any synergy between the two.
Plates are left at 37° C. for about 20 hours and scored for growth by eye.
Synergy may be expressed as a ratio of the minimum inhibitory concentration (MIC) of an antibiotic tested in the absence of a β-lactamase inhibitor to the MIC of the same antibiotic tested in the presence of the β-lactamase inhibitor. […] Alternatively, the synergy effect may be expressed as a factor, again, utilizing a concentration of the BLI to lower the MIC of the antibiotic.

The target in test [3] is AmpC (P. aeruginosa) (Pseudomonas aeruginosa (strain ATCC 15692 / DSM 22644 / CIP 104116 / JCM 14847 / LMG 12228 / 1C / PRS 101 / PAO1), UniProt P24735). Description: biochemical. As for the experimental part:
The Class C enzyme activities were measured in the presence of the test inhibitor in spectrophotometric assay against the commercially available substrate, nitrocefin. The enzyme AmpC (P. aeruginosa.), and the substrate, were dissolved in 100 mM KH2PO4 buffer (pH 7). The buffer also contains 0.005% BSA. The test inhibitor was dissolved in DMSO and diluted 1:20 in the assay, resulting in a final concentration range of 50 μM to 0.0002 μM. In a 96-well microplate, the test inhibitor was incubated with the beta-lactamase enzyme for 40 minutes at ambient temperature, the substrate solution was added, and the incubation continued for another 40 minutes. […] The IC50 value was determined from semi logarithmic plots of enzyme inhibition versus inhibitor concentration, with a curve generated using a 4-parameter fit.

Test [4] deals with KPC-2 (K. pneumoniae) (Klebsiella pneumoniae, UniProt Q9F663). Description: biochemical.
Chain of KPC-2 (K. pneumoniae) (Q9F663 25-293 limits assumed): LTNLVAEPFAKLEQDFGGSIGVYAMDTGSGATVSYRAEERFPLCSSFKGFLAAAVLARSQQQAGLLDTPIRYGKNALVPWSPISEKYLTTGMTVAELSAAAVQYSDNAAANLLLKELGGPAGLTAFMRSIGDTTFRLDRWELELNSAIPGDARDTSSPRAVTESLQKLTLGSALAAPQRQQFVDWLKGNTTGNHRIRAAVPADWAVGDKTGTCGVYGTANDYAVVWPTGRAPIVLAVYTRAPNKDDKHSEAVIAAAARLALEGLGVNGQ
Where [5] appears, read: BLI concentration reducing the MIC of imipenem by a factor of 4, P. aeruginosa strain CL5701.
[6] abbreviates: BLI concentration reducing the MIC of imipenem by a factor of 8, P. aeruginosa strain CL5701.
The mark [7] stands for this setting: Table 2, read-out: K.p. KPC-2 IC50.
Setting [8] is: Table 3, read-out: K.p. KPC-2 IC50.
The mark [9] stands for this setting: Table 2, read-out: P.a. AmpC IC50.
Where [10] appears, read: Table 3, read-out: P.a. AmpC IC50.

Where two headings read alike, the source gives them in different places. A value given as a limit tells only on which side of the number the result lay.

Chain of AmpC (P. aeruginosa) (P24735 27-397): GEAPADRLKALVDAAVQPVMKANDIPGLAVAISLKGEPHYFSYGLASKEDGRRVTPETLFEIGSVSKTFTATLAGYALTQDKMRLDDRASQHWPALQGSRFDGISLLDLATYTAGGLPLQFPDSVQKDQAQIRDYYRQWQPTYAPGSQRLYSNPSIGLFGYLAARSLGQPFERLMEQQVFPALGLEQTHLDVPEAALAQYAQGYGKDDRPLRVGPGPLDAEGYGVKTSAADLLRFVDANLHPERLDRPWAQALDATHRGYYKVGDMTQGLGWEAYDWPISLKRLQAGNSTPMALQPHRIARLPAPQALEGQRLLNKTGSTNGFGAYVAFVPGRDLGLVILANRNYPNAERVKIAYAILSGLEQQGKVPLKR

Consider `O=C(NC1CCNCC1)[C@@H]1CC[C@@H]2CN1C(=O)N2OS(=O)(=O)O` [Example 1, (2S,5R)-7-oxo-N-piperidin-4-yl-6-(sulfooxy)-1,6-diazabicyclo[3.2.1]octane-2-carboxamide], for which, in test [1], the “2X Synergy CL5701” value was determined as 0.2 µM. In addition, the “4X Synergy CL5701” value in test [1] (setting [5]) came to 3.12 µM. In addition, the “8X Synergy CL5701” value in test [1] (setting [6]) came to 6.25 µM. In test [2], the “16X Synergy CL6569” value is 6.25 µM, the “32X Synergy CL6569” value turned out to be 12.5 µM and the “64X Synergy CL6569” value was found to be 12.5 µM.

For orientation: IC50 means the concentration that gives 50% inhibition. Compound `O=C(N[C@H]1CCCNCC1)[C@@H]1CC[C@@H]2CN1C(=O)N2OS(=O)(=O)O` [Example 2, (2S,5R)—N-[(4S)-Azepan-4-yl]-7-oxo-6-(sulfooxy)-1,6-diazabicyclo[3.2.1]-octane-2-carboxamide] showed an IC50 in test [3] of 69 nM. In addition, the IC50 in test [4] (setting [7]) came to 245 nM. For the same compound, in test [4] (setting [8]), the IC50 is 245 nM. Also, in test [1], the “2X Synergy CL5701” value came out at 3.12 µM. Also, the “4X Synergy CL5701” value in test [1] (setting [5]) was determined as 6.25 µM. In addition, in test [1] (setting [6]), the “8X Synergy CL5701” value was 6.25 µM. In test [2], the “16X Synergy CL6569” value was 6.25 µM, the “32X Synergy CL6569” value stood at 12.5 µM and the “64X Synergy CL6569” value was found to be 25 µM.

Consider `O=C(N[C@@H]1CCNC1)[C@@H]1CC[C@@H]2CN1C(=O)N2OS(=O)(=O)O` [Example 4, (2S,5R)-7-Oxo-N-[(3R)-pyrrolidin-3-yl]-6-(sulfooxy)-1,6-diazabicyclo[3.2.1]-octane-2-carboxamide], for which the IC50 in test [3] (setting [9]) amounted to 29000 nM. This compound also registered an IC50 in test [4] (K.p. KPC-2 IC50, Table 2) of 4400 nM. For the same compound, the “2X Synergy CL5701” value in test [1] is reported as 100/100/>100 μM. Besides, the “4X Synergy CL5701” value in test [1] (setting [5]) was 100/100/>100 μM. The “8X Synergy CL5701” value in test [1] (setting [6]) is recorded as 100/100/>100 μM. Also, in test [2], the “16X Synergy CL6569” value was determined as 50 µM, the “32X Synergy CL6569” value came to 100 µM and the “64X Synergy CL6569” value was 100 µM.

In test [3], `O=C(Nc1ccncc1)[C@@H]1CC[C@@H]2CN1C(=O)N2OS(=O)(=O)O` [Example 6, (2S,5R)-7-Oxo-N-pyridin-4-yl-6-(sulfooxy)-1,6-diazabicyclo[3.2.1]octane-2-carboxamide] returned an IC50 of 6 nM. In test [1], the “4X Synergy CL5701” value was 25 µM, the “8X Synergy CL5701” value stood at 100 µM and the “2X Synergy CL5701” value stood at 12.5 µM. Further, in test [2], the “16X Synergy CL6569” value is 50 µM, the “32X Synergy CL6569” value came out at 50 µM and the “64X Synergy CL6569” value was above 100 µM.

`COc1cc(NC(=O)[C@@H]2CC[C@@H]3CN2C(=O)N3OS(=O)(=O)O)ccn1` [Example 7, (2S,5R)—N-(2-Methoxypyridin-4-yl)-7-oxo-6-(sulfooxy)-1,6-diazabicyclo[3.2.1]octane-2-carboxamide]: the IC50 in test [3] (setting [9]) was 1.1 nM; in test [3] (setting [10]), 11 nM; in test [4] (setting [7]), 8 nM; in test [4] (setting [8]), 8 nM. The “2X Synergy CL5701” value in test [1] was 50 µM. The “4X Synergy CL5701” value in test [1] (setting [5]) worked out at 100 µM. Also, the “8X Synergy CL5701” value in test [1] (setting [6]) is above 100 µM. In addition, the “16X Synergy CL6569” value in test [2] stood at 25 µM. In addition, the “32X Synergy CL6569” value in test [2] was found to be 50 µM. For the same compound, the “64X Synergy CL6569” value in test [2] is above 100 µM.

Regarding `CN(C)c1cc(NC(=O)[C@@H]2CC[C@@H]3CN2C(=O)N3OS(=O)(=O)O)ccn1` [Example 8, (2S,5R)—N-[2-(Dimethylamino)pyridin-4-yl]-7-oxo-6-(sulfooxy)-1,6-diazabicyclo[3.2.1]octane-2-carboxamide], the IC50 in test [3] (setting [9]) stood at 1.6 nM; in test [3] (setting [10]) it was 16 nM; in test [4] (setting [7]) it was 1.6 nM; in test [4] (setting [8]), 16 nM. The “2X Synergy CL5701” value in test [1] was determined as 12.5 µM. Besides, in test [1] (setting [5]), the “4X Synergy CL5701” value is 100 µM. The “8X Synergy CL5701” value in test [1] (setting [6]) is above 100 µM. Moreover, in test [2], the “16X Synergy CL6569” value came out at 25 µM. In addition, the “32X Synergy CL6569” value in test [2] worked out at 25 µM. Further, the “64X Synergy CL6569” value in test [2] is 50 µM.

For the compound `NCc1ccc(NC(=O)[C@@H]2CC[C@@H]3CN2C(=O)N3OS(=O)(=O)O)cc1` [Example 9, (2S,5R)—N-[4-(aminomethyl)phenyl]-7-oxo-6-(sulfooxy)-1,6-diazabicyclo[3.2.1]octane-2-carboxamide], the 50% inhibitory concentration (IC50) in test [3] (setting [9]) was 20 nM. Also, the IC50 in test [4] (setting [7]) came to 72 nM. Moreover, the “2X Synergy CL5701” value in test [1] is 0.78 µM. In test [1] (setting [5]), the “4X Synergy CL5701” value worked out at 3.12 µM. The “8X Synergy CL5701” value in test [1] (setting [6]) came to 6.25 µM. Further, in test [2], the “16X Synergy CL6569” value was determined as 6.25 µM, the “32X Synergy CL6569” value turned out to be 6.25 µM and the “64X Synergy CL6569” value stood at 12.5 µM.

In the case of `O=C(O[C@H]1CNCC[C@@H]1F)[C@@H]1CC[C@@H]2CN1C(=O)N2OS(=O)(=O)O` [Example 101], the IC50 in test [3] amounted to 81 nM; in test [4] (setting [8]), 15 nM.

As for `O=C(O[C@H]1CNCC[C@H]1F)[C@@H]1CC[C@@H]2CN1C(=O)N2OS(=O)(=O)O` [Example 102], the 50% inhibitory concentration (IC50) in test [3] is 76 nM; in test [4] (setting [8]) it was 4 nM.

Take `O=C(O[C@@H]1CNC[C@@H]1F)[C@@H]1CC[C@@H]2CN1C(=O)N2OS(=O)(=O)O` [Example 103]: the half-inhibitory concentration (IC50) in test [3] turned out to be 39 nM; in test [4] (setting [8]), 3 nM.

On to `O=C(O[C@H]1CNC[C@H]1F)[C@@H]1CC[C@@H]2CN1C(=O)N2OS(=O)(=O)O` [Example 104], for which the results for the IC50 in test [3] and in test [4] (setting [8]) were 38 nM and 24 nM, respectively.

Consider `O=C(O[C@@H]1CNC[C@H]1F)[C@@H]1CC[C@@H]2CN1C(=O)N2OS(=O)(=O)O` [Example 105], for which the figures for the 50% inhibitory concentration (IC50) in test [3] and in test [4] (setting [8]) were 200 nM and 13 nM, respectively.

On to `O=C(O[C@H]1CNC[C@@H]1F)[C@@H]1CC[C@@H]2CN1C(=O)N2OS(=O)(=O)O` [Example 106], for which the results for the half-inhibitory concentration (IC50) in test [3] and in test [4] (setting [8]) were 200 nM and 10 nM, respectively.

`O=C(O[C@H]1CNOC1)[C@@H]1CC[C@@H]2CN1C(=O)N2OS(=O)(=O)O` [Example 107]: the half-inhibitory concentration (IC50) in test [3] (setting [10]) is 39 nM; in test [4] (setting [8]), 11 nM.

For `O=C(O[C@@H]1CNOC1)[C@@H]1CC[C@@H]2CN1C(=O)N2OS(=O)(=O)O` [Example 108], the figures for the concentration for half-maximal inhibition (IC50) in test [3] (setting [10]) and in test [4] (setting [8]) were 62 nM and 11 nM, respectively.

As to `O=C(OC1CNNC1)[C@@H]1CC[C@@H]2CN1C(=O)N2OS(=O)(=O)O` [Example 109], the values for the IC50 in test [3] (setting [10]) and in test [4] (setting [8]) were 700 nM and 62 nM, respectively.

For the compound `NCCOC(=O)[C@@H]1CC[C@@H]2CN1C(=O)N2OS(=O)(=O)O` [Example 110], the half-maximal inhibitory concentration (IC50) in test [3] (setting [10]) turned out to be 610 nM; in test [4] (setting [8]) it was 30 nM.

Consider `O=C(OCCN1CCCCC1)[C@@H]1CC[C@@H]2CN1C(=O)N2OS(=O)(=O)O` [Example 111], for which the figures for the IC50 in test [3] (setting [10]) and in test [4] (setting [8]) were 1200 nM and 20 nM, respectively.

For `O=C(OCCC1CCNCC1)[C@@H]1CC[C@@H]2CN1C(=O)N2OS(=O)(=O)O` [Example 112], the half-inhibitory concentration (IC50) in test [3] turned out to be 165 nM; in test [4] (setting [8]), 13 nM.

For the compound `CC1(COC(=O)[C@@H]2CC[C@@H]3CN2C(=O)N3OS(=O)(=O)O)CCNCC1` [Example 113], the IC50 was found to be 36 nM in test [3] (setting [10]) and 8 nM in test [4] (setting [8]).

Regarding `O=C(OCC1CNCCCO1)[C@@H]1CC[C@@H]2CN1C(=O)N2OS(=O)(=O)O` (stereo partly shown) [Example 114], the IC50 in test [3] (setting [10]) was 340 nM; in test [4] (setting [8]) it was 11 nM.

Take `NCc1ccc(OC(=O)[C@@H]2CC[C@@H]3CN2C(=O)N3OS(=O)(=O)O)cc1` [Example 115]: the concentration for half-maximal inhibition (IC50) in test [3] (setting [10]) was determined as 24 nM; in test [4] (setting [8]), 2 nM.

Turning to `CC(=O)Oc1ccc(C(=O)NCCOC(=O)[C@@H]2CC[C@@H]3CN2C(=O)N3OS(=O)(=O)O)cc1OC(C)=O` [Example 116], the 50% inhibitory concentration (IC50) worked out at 440 nM in test [3] (setting [10]) and 70 nM in test [4] (setting [8]).

Consider `CC(=O)Oc1ccc(C(=O)NCC(CNC(=O)c2ccc(OC(C)=O)c(OC(C)=O)c2)OC(=O)[C@@H]2CC[C@@H]3CN2C(=O)N3OS(=O)(=O)O)cc1OC(C)=O` [Example 117], for which the values for the IC50 in test [3] (setting [10]) and in test [4] (setting [8]) were 61 nM and 12 nM, respectively.

For `CC1(C)[C@H](C(=O)O)N2C(=O)C[C@H]2S1(=O)=O` [Sulbactam, sulbactam, reference compound], the IC50 in test [3] (setting [9]) was determined as 17000 nM; in test [4] (setting [7]), 33000 nM.

Source of the values: patent publication US8487093B2, “β-lactamase inhibitors” (Merck Sharp & Dohme Corp., priority 2008, dated 2013).
